Consider seven molecules from US5614408A, “Monoclonal antibodies to potato, tomato, and eggplant glycoalkaloids and assays for the same” (priority 1995, dated 1997).

Format in all cases: binding, mouse
Experiment [1] has as its system monoclonal antibody Sol-106. The experiment in a line: competitive inhibition ELISA (c-ELISA), monoclonal antibody Sol-106. To be noted: Sol-106 (IgG2a); ± one standard deviation. How it is done:
(§1) Five, 6 month old BALB/c mice were injected with 50 μl of the solanidine-KLH conjugate mixed 1:1 with Ribi adjuvant (Ribi Immunochem Research Inc., Hamilton, Mont.). The mice received half the dose intraperitoneally and half intramuscularly every other week for a total of three injections. One month later, and 4 days prior to fusion, a selected mouse was given an intraperitoneal injection of 50 μl of solanidine-KLHconjugate in sterile saline. The spleen was removed and the splenocytes fused with SP2/O myeloma cells as described by Stanker et al. (1986, J. Immunol., 136:4174-4180), the contents of which are incorporated by reference herein. The fused cells were plated over 30 96-well microculture plates previously coated with mouse peritoneal exudate cells (macrophage) and grown under conditions described by Elissalde et al. (1993, J. Agric. Food Chem., 41:2167-2171), the contents of which are also incorporated by reference herein.
(§2) db-ELISA. A modification of a direct-binding ELISA described by Stanker et al. (1993, J. Agric. Food Chem., 41:1332-1336), the contents of which are incorporated by reference herein, was used to screen the culture fluids from the growing hybridomas for antibodies to solanidine. Microtiter plates (Nunc Maxisorb, Roskilde, Denmark; or Costar high binding plates, Costar Corp., Wilmington, Mass.) were coated with SOL-BSA by addition of 100 μl/well of a 1 μg/ml solution of SOL-BSA in distilled water. The SOL-BSA was incubated in uncovered plates at 37° C. for 18 hr to evaporate the liquid and allow the SOL-BSA to coat the bottom of the microtiter wells. The "coated" plates were then stored in sealed plastic bags at 4° C. and used within 2 weeks. Nonreacted sites on the plates were blocked by adding 400 μl of a 3% solution of nonfat dry milk (NFDM) in assay buffer (0.1M Tris, 0.15M NaCl, 10 mg/ml nonfat dry milk, 0.001% Tween 20, 0.02% sodium azide) and incubating the plates at room temperature for 1 hr. The blocking solution was then discarded and 100 μl of the hybridoma supernatant(s) or anti-solanidine Mab (from ascites fluid) was added, and the plates incubated for 1 hr at 37° C. After incubation, the plates were washed with a solution of 0.05% TWEEN-20 in water, and peroxidase conjugated goat anti-mouse antiserum (Sigma Inc., St. Louis, Mo.), diluted 1:500 in assay buffer, was then added to each well. Following a second 1 hr incubation at 37° C., the plates were washed as described above. Finally, the substrate, 2,2'-azino-bis(ethylbenzthiazole-6-sulfonic acid) (ABTS), was added. Absorbance was measured at 405 nm and the resulting data analyzed by computer using an Excel (Microsoft, Redmond, Wash.) spreadsheet program.
(§3) c-ELISA. The competitive inhibition ELISA for solanidine and other glycoalkaloids was carried out as previously described for other compounds by Stanker et al. (1993, ibid). Briefly, to each well of an antigen (glycoalkaloid or aglycone) coated, non-fat-milk-blocked, microtiter plate prepared as described in the db-ELISA was added 100 μl of assay buffer. Competitors (free solanidine and other glycoalkaloids and aglycones, and four structurally related steroids cholesterol, digitonin, βsitosterol, and stigmasterol, shown in Table 1) dissolved in 100 μl of assay buffer were added to the microassay plate and serially diluted (a 2-fold series). Next, 100 μl of assay buffer containing a predetermined amount of anti-solanidine monoclonal antibody prepared above was added to each well. The amount of anti-alkaloid antibody added was the concentration (dilution from tissue culture supernatant) resulting in approximately 50% of maximum binding or signal in a direct-binding ELISA where no competitor was present. The plates were sealed with plastic wrap, incubated for 1 hr at 37° C., and then processed as described in the db-ELISA to detect bound antibody. […]

The test system of experiment [2] is monoclonal antibody Sol-68. Briefly: competitive inhibition ELISA (c-ELISA), monoclonal antibody Sol-68. To be noted: Sol-68 (IgG1); ± one standard deviation. How it is done: as §1, §2, §3
Experiment [3] concerns monoclonal antibody Sol-8. Briefly: competitive inhibition ELISA (c-ELISA), monoclonal antibody Sol-8. To be noted: Sol-8 (IgG2a); ± one standard deviation. How it is done:
as §1, §2, §3

The test system of experiment [4] is monoclonal antibody Sol-71. Briefly: competitive inhibition ELISA (c-ELISA), monoclonal antibody Sol-71. The following applies: Sol-71 (IgG2a); ± one standard deviation. How it is done:
as §1, §2, §3

The subject of experiment [5] is monoclonal antibody Sol-55. Briefly: competitive inhibition ELISA (c-ELISA), monoclonal antibody Sol-55. The following applies: Sol-55 (IgG2a); ± one standard deviation. On the procedure:
as §1, §2, §3

Experiment [6] deals with monoclonal antibody Sol-54. The experiment in a line: competitive inhibition ELISA (c-ELISA), monoclonal antibody Sol-54. To be noted: Sol-54 (IgG2a); ± one standard deviation. How it is done:
as §1, §2, §3

For experiment [7], the system named is monoclonal antibody Sol-67. The experiment in a line: competitive inhibition ELISA (c-ELISA), monoclonal antibody Sol-67. To be noted: Sol-67 (IgG1); ± one standard deviation. On the procedure:
as §1, §2, §3

In experiment [8] the test system is monoclonal antibody Sol-129. The experiment in a line: competitive inhibition ELISA (c-ELISA), monoclonal antibody Sol-129. To be noted: for IC50: Sol-129 (IgG1), ± one standard deviation; for relative affinity of Sol-129 / binding by Sol-129: in words. On the procedure: as §1, §2, §3
For experiment [9], the system named is monoclonal antibody Sol-91. Briefly: competitive inhibition ELISA (c-ELISA), monoclonal antibody Sol-91. To be noted: Sol-91 (IgG2a); ± one standard deviation. How it is done:
as §1, §2, §3

Experiment [10] deals with monoclonal antibody Sol-59. The experiment in a line: competitive inhibition ELISA (c-ELISA), monoclonal antibody Sol-59. To be noted: Sol-59 (IgG2a); ± one standard deviation. On the procedure: as §1, §2, §3
In experiment [11] the test system is monoclonal antibody Sol-48. The experiment in a line: competitive inhibition ELISA (c-ELISA), monoclonal antibody Sol-48. To be noted: Sol-48 (IgG2a); ± one standard deviation. How it is done:
as §1, §2, §3

“Also recorded” adds a separate entry of the source.

On to `C[C@H]1CC[C@@H]2[C@@H](C)[C@H]3[C@H](C[C@H]4[C@@H]5CC=C6C[C@@H](O[C@@H]7O[C@H](CO)[C@H](O[C@@H]8O[C@@H](C)[C@H](O)[C@@H](O)[C@H]8O)[C@H](O)[C@@H]7O[C@@H]7O[C@@H](C)[C@@H](O)[C@@H](O)[C@H]7O)CC[C@]6(C)[C@H]5CC[C@]34C)N2C1` [α-chaconine], for which the IC50 in [1] is recorded as 54 ± 13 ppb; in experiment [2], “nc (no competition at 10,000 ppb)”; in [3] it was 294 ± 34 ppb; in experiment [4] it was “nc (no competition at 10,000 ppb)”; in experiment [5] it was 204 ± 19 ppb; in experiment [6] it was 165 ± 58 ppb. Besides, the IC50 in experiment [7] was 20.2 ppb; in experiment [8], 2.8 ± 0.2 ppb; in experiment [9], 82 ± 5.2 ppb; in experiment [10], 25 ± 2.1 ppb; in experiment [11], 323 ± 125 ppb. Besides, the “relative affinity of Sol-129” value in experiment [8] was “high affinity”.

Turning to `C[C@H]1CC[C@]2(NC1)O[C@H]1C[C@H]3[C@@H]4CC[C@H]5C[C@@H](O)CC[C@]5(C)[C@H]4CC[C@]3(C)[C@H]1[C@@H]2C` [tomatidine], the IC50 entry in experiment [1], in experiment [2], in experiment [3], in [4], in experiment [5] and in experiment [6] was “nc (no competition at 10,000 ppb)” in each case. In addition, the IC50 result in [7] is on record as “nc (no competition at 10,000 ppb)”; in experiment [8], 10.4 ± 2.0 ppb; in experiment [9], “nc (no competition at 10,000 ppb)”; in [10] it was “nc (no competition at 10,000 ppb)”; in experiment [11], “nc (no competition at 10,000 ppb)”. For the same molecule, the “binding by Sol-129” value in experiment [8] is “specifically bound; also recorded: Sol-129 was the only antibody capable of binding”.

`C[C@H]1CC[C@@H]2[C@@H](C)[C@H]3[C@H](C[C@H]4[C@@H]5CC=C6C[C@@H](O)CC[C@]6(C)[C@H]5CC[C@]34C)N2C1` [solanidine]: the IC50 in [1] was determined as 14 ppb; in experiment [2], 489 ppb; in [3], 46 ± 6.4 ppb; in experiment [4], 1020 ppb; in experiment [5] it was 60 ± 19 ppb; in experiment [6], 131 ± 53 ppb. Also, the IC50 in experiment [7] is 15.6 ppb; in experiment [8], 2.5 ± 0.35 ppb; in experiment [9] it was 36 ± 5.7 ppb; in [10] it was 16 ± 1.7 ppb; in [11], 18 ± 4.4 ppb. The “relative affinity of Sol-129” value in [8] was “high affinity; also recorded: lowest relative affinity”.

As for `C[C@@H]1CC[C@@]2(NC1)O[C@H]1C[C@H]3[C@@H]4CC=C5C[C@@H](O)CC[C@]5(C)[C@H]4CC[C@]3(C)[C@H]1[C@@H]2C` [solasodine], the “binding by Sol-129” value in [8] is “binds”.

In the case of `C[C@@H]1CC[C@@]2(NC1)O[C@H]1C[C@H]3[C@@H]4CC=C5C[C@@H](O[C@@H]6O[C@H](CO)[C@H](O)[C@H](O[C@@H]7O[C@H](CO)[C@@H](O)[C@H](O)[C@H]7O)[C@H]6O[C@@H]6O[C@@H](C)[C@H](O)[C@@H](O)[C@H]6O)CC[C@]5(C)[C@H]4CC[C@]3(C)[C@H]1[C@@H]2C` [solasonine], the IC50 result in experiment [1], in experiment [2], in experiment [3], in [4], in experiment [5] and in [6] was “nc (no competition at 10,000 ppb)” throughout. Moreover, the IC50 entry in experiment [7] was “nc (no competition at 10,000 ppb)”; in experiment [8] it was 36 ± 3.2 ppb; in experiment [9] it was “nc (no competition at 10,000 ppb)”; in [10], “nc (no competition at 10,000 ppb)”; in [11] it was “nc (no competition at 10,000 ppb)”. Moreover, the “binding by Sol-129” value in experiment [8] is reported as “Sol-129 was the only antibody capable of binding”. The “relative affinity of Sol-129” value in experiment [8] was “high affinity”.

Regarding `C[C@H]1CC[C@@H]2[C@@H](C)[C@H]3[C@H](C[C@H]4[C@@H]5CC=C6C[C@@H](O[C@@H]7O[C@H](CO)[C@H](O)[C@H](O[C@@H]8O[C@H](CO)[C@@H](O)[C@H](O)[C@H]8O)[C@H]7O[C@@H]7O[C@@H](C)[C@H](O)[C@@H](O)[C@H]7O)CC[C@]6(C)[C@H]5CC[C@]34C)N2C1` [α-solanine], the IC50 is 49 ± 8 ppb in experiment [1]; “nc (no competition at 10,000 ppb)” in [2]; 253 ± 64 ppb in experiment [3]; “nc (no competition at 10,000 ppb)” in experiment [4]; 118 ± 18 ppb in [5]; 215 ± 32 ppb in [6]. In addition, the IC50 in experiment [7] is on record as 27.8 ppb; in experiment [8] it was 2.6 ± 0.25 ppb; in experiment [9], 104 ± 18 ppb; in experiment [10], 35 ± 8 ppb; in [11], 436 ± 135 ppb. Besides, in experiment [8], the “relative affinity of Sol-129” value is “high affinity”.

Take `C[C@H]1CC[C@]2(NC1)O[C@H]1C[C@H]3[C@@H]4CC[C@H]5C[C@@H](O[C@@H]6O[C@H](CO)[C@H](O[C@@H]7O[C@H](CO)[C@@H](O)[C@H](O[C@@H]8OC[C@@H](O)[C@H](O)[C@H]8O)[C@H]7O[C@@H]7O[C@H](CO)[C@@H](O)[C@H](O)[C@H]7O)[C@H](O)[C@H]6O)CC[C@]5(C)[C@H]4CC[C@]3(C)[C@H]1[C@@H]2C` [α-tomatine]: the IC50 result in [1], in experiment [2], in experiment [3], in experiment [4], in experiment [5] and in experiment [6] was “nc (no competition at 10,000 ppb)” in each case. Moreover, the IC50 result is “nc (no competition at 10,000 ppb)” in [7]; 5.4 ± 3.5 ppb in experiment [8]; “nc (no competition at 10,000 ppb)” in experiment [9]; “nc (no competition at 10,000 ppb)” in [10]; “nc (no competition at 10,000 ppb)” in experiment [11]. Further, in [8], the “binding by Sol-129” value is “specifically bound; also recorded: Sol-129 was the only antibody capable of binding”. Also, in [8], the “relative affinity of Sol-129” value was “approximately the same affinity as the potato glycoalkaloids”.
